In patent US20100152188A1, “Novel Heterocyclic Compounds” (priority 2005, published 2010):

Tests used:
[1] = tested on: NCIH460, HCT116, MDAMB-231/U 251; experiment: Anti-cancer screen, mean GI50 over the cell lines; type: cell-based; conditions: in µM
Protocol: (§1) Experimental drugs are screened for anti-cancer activity in three cell lines for their GI50, TGI and LC50 values (using five concentrations for each compound). The cell lines are maintained in DMEM containing 10% fetal bovine serum. 96 well micro titer plates are inoculated with cells in 100 µL for 24 hours at 37° C., 5% CO2, 95% air and 100% relative humidity. 5000 HCT 116 cells/well, 5000 NCIH 460 cells/well and 5000 U251 cells/well are plated. A separate plate with these cell lines is also inoculated to determine cell viability before the addition of the compounds (T0).
(§2) Following 24-hour incubation, experimental drugs are added to the 96 well plates. Each plate contains one of the above cell lines and the following in triplicate: five different concentrations (0.01, 0.1, 1, 10 and 100 µM) of four different compounds, appropriate dilutions of a cytotoxic standard and control (untreated) wells. Compounds are dissolved in DMSO to make 20 mM stock solutions on the day of drug addition and frozen at −20° C. Serial dilutions of these 20 mM stock solutions are made in complete growth medium such that 100 µL of these drug solutions in medium, of final concentrations equaling 0.01, 0.1, 1, 10 and 100 µM can be added to the cells in triplicate. Standard drugs whose anti-cancer activity has been well documented and which are regularly used are doxorubicin and SAHA.
(§3) For T0 measurement, 24 hours after seeding the cells, 10 µL of 3-(4,5-Dimethyl-2-thiazolyl)-2,5-diphenyl-2H-tetrazolium (MTT) solution per well is added and incubation carried out for 3 hours at 37° C., 5% CO2, 95% air and 100% relative humidity, protected from light. Cells incubated with compounds for 48 hours are treated similarly except with the addition of 20 µl MTT solution per well and a subsequent incubation under the same conditions. After 3 hours of MTT incubation, well contents are aspirated carefully followed by addition of 150 µL DMSO per well. Plates are agitated to ensure solution of the formazan crystals in DMSO and absorbance read at 570 nm.
(§4) Percent growth is calculated for each compound's concentration relative to the control and zero measurement wells (T0; viability right before compound addition). If a test well's O.D. value is greater than the T0 measurement for that cell line

[2] = tested on: MDAMB-231/U 251; experiment: Anti-cancer screen (MTT), MDAMB-231/U 251; type: cell-based; conditions: for CC50: 48 h, read-out: MDAMB-231/U 251 LC50; for GI50 / IC (TGI): 48 hours with compound, MTT, tested at 0.01-100 µM
Protocol: as §1, §2, §3, §4
(§5) %Growth=(test−zero)/(control−zero)×100
(§6) If a test well's O.D. value is lower than the T0 measurement for that cell line, then,
(§7) %Growth=(test−zero)/zero×100

[3] = tested on: NCIH460; experiment: Anti-cancer screen (MTT), NCIH460; type: cell-based; conditions: Homo sapiens, NCI-H460, 48 hours with compound, tested at 0.01-100 µM
Protocol: as §1, §2, §3, §4, §5, §6, §7

[4] = tested on: HCT116; experiment: Anti-cancer screen (MTT), HCT116; type: cell-based; conditions: Homo sapiens, HCT-116, 48 hours with compound, tested at 0.01-100 µM
Protocol: as §1, §2, §3, §4, §5, §6, §7

[5] = tested on: HDAC; experiment: HDAC inhibition; type: biochemical; conditions: for HDAC Inhibition 1 μM: compound at 1 μM; for HDAC Inhibition 10 μM: compound at 10 μM

Compound: O=C(Cc1csc(NC(=O)OCc2cccnc2)n1)Nc1nc2ccccc2s1 [Example 11, Pyridin-3-ylmethyl{4-[2-(1,3-benzothiazol-2-ylamino)-2-oxoethyl]-1,3-thiazol-2-yl}carbamate]
- Mean GI50 [1]: 6
- CC50 [2]: > 100 µM
- GI50 [2]: 5 µM
- IC (TGI) [2]: 10 µM
- GI50 [3]: 7 µM
- IC (TGI) [3]: > 100 µM
- LC50 [3]: > 100 µM
- GI50 [4]: > 100 µM
- IC (TGI) [4]: > 100 µM
- LC50 (concentration giving 50% net cell kill relative to T0) [4]: > 100 µM

Compound: O=C(Nc1nc(CC(=O)N2CCC(N3CCCCC3)CC2)cs1)OCc1cccnc1 [Example 13, Pyridin-3-ylmethyl{4-[2-(1,4′-bipiperidin-1′-yl)-2-oxoethyl]-1,3-thiazol-2-yl}carbamate]
- Mean GI50 [1]: >100
- CC50 [2]: > 100 µM
- GI50 [2]: 0.09 µM
- IC (TGI) [2]: > 100 µM
- GI50 [3]: 2.8 µM
- IC (TGI) [3]: 25 µM
- LC50 [3]: > 100 µM
- GI50 [4]: > 100 µM
- IC (TGI) [4]: > 100 µM
- LC50 (concentration giving 50% net cell kill relative to T0) [4]: > 100 µM

Compound: CON(C)C(=O)Cc1csc(NC(=O)OCc2cccnc2)n1 [Example 14, Pyridin-3-ylmethyl(4-{2-[methoxy(methyl)amino]-2-oxoethyl}-1,3-thiazol-2-yl)carbamate]
- Mean GI50 [1]: 45
- CC50 [2]: > 100 µM
- GI50 [2]: > 100 µM
- IC (TGI) [2]: > 100 µM
- GI50 [3]: 10 µM
- IC (TGI) [3]: > 100 µM
- LC50 [3]: > 100 µM
- GI50 [4]: 80 µM
- IC (TGI) [4]: > 100 µM
- LC50 (concentration giving 50% net cell kill relative to T0) [4]: > 100 µM

Compound: CNC(=O)Cc1csc(NC(=O)OCc2cccnc2)n1 [Example 15, Pyridin-3-ylmethyl{4-[2-(methylamino)-2-oxoethyl]-1,3-thiazol-2-yl}carbamate]
- Mean GI50 [1]: 73.3
- CC50 [2]: > 100 µM
- GI50 [2]: 60 µM
- IC (TGI) [2]: > 100 µM
- GI50 [3]: 60 µM
- IC (TGI) [3]: > 100 µM
- LC50 [3]: > 100 µM
- GI50 [4]: 100 µM
- IC (TGI) [4]: > 100 µM
- LC50 (concentration giving 50% net cell kill relative to T0) [4]: > 100 µM

Compound: CN(C)C(=O)Cc1csc(NC(=O)OCc2cccnc2)n1 [Example 16, Pyridin-3-ylmethyl{4-[2-(dimethylamino)-2-oxoethyl]-1,3-thiazol-2-yl}carbamate]
- Mean GI50 [1]: 14
- CC50 [2]: > 100 µM
- GI50 [2]: 20 µM
- IC (TGI) [2]: > 100 µM
- GI50 [3]: 8 µM
- IC (TGI) [3]: > 100 µM
- LC50 [3]: > 100 µM
- GI50 [4]: > 100 µM
- IC (TGI) [4]: > 100 µM
- LC50 (concentration giving 50% net cell kill relative to T0) [4]: > 100 µM

Compound: Nc1ccccc1NC(=O)Cc1csc(NC(=O)OCc2c(F)c(F)c(F)c(F)c2F)n1 [Example 22, Pentafluorobenzyl(4-{2-[(2-aminophenyl)amino]-2-oxoethyl}-1,3-thiazol-2-yl)carbamate]
- Mean GI50 [1]: 37
- CC50 [2]: > 100 µM
- GI50 [2]: 10 µM
- IC (TGI) [2]: > 100 µM
- GI50 [3]: 48 µM
- IC (TGI) [3]: > 100 µM
- LC50 [3]: > 100 µM
- GI50 [4]: 53 µM
- IC (TGI) [4]: > 100 µM
- LC50 (concentration giving 50% net cell kill relative to T0) [4]: > 100 µM

Compound: O=C(NCc1ccc(C(=O)NO)cc1)OCc1c(F)c(F)c(F)c(F)c1F [Example 29, Pentafluorobenzyl{4-[(hydroxyamino)carbonyl]benzyl}carbamate]
- Mean GI50 [1]: 1.5
- CC50 [2]: > 100 µM
- GI50 [2]: 3.1 µM
- IC (TGI) [2]: > 100 µM
- GI50 [3]: 0.4 µM
- IC (TGI) [3]: 22.5 µM
- LC50 [3]: 82.5 µM
- GI50 [4]: 0.98 µM
- IC (TGI) [4]: 3.5 µM
- LC50 (concentration giving 50% net cell kill relative to T0) [4]: 48 µM

Compound: O=C(NCc1ccc(C(=O)NO)cc1)OCc1ccc(C(F)(F)F)cc1 [Example 35, 4-(Trifluoromethyl)benzyl{4-[(hydroxyamino)carbonyl]benzyl}carbamate]
- Mean GI50 [1]: 8.4
- CC50 [2]: 70 µM
- GI50 [2]: 0.05 µM
- IC (TGI) [2]: 15 µM
- GI50 [3]: 20 µM
- IC (TGI) [3]: 50 µM
- LC50 [3]: 80 µM
- GI50 [4]: 5 µM
- IC (TGI) [4]: 12 µM
- LC50 (concentration giving 50% net cell kill relative to T0) [4]: 60 µM

Compound: COc1cc(COC(=O)NCc2ccc(C(=O)NO)cc2)cc(OC)c1OC [Example 36, 3,4,5-Trimethoxybenzyl{4-[(hydroxyamino)carbonyl]benzyl}carbamate]
- Mean GI50 [1]: 36.2
- CC50 [2]: 85 µM
- GI50 [2]: 5.5 µM
- IC (TGI) [2]: 10 µM
- GI50 [3]: 68 µM
- IC (TGI) [3]: > 100 µM
- LC50 [3]: > 100 µM
- GI50 [4]: 35 µM
- IC (TGI) [4]: 60 µM
- LC50 (concentration giving 50% net cell kill relative to T0) [4]: 85 µM

Compound: O=C(NCc1ccc(C(=O)NO)cc1)OCc1c(F)cc(F)cc1F [Example 38, 2,4,6-Trifluorobenzyl{4-[(hydroxyamino)carbonyl]benzyl}carbamate]
- Mean GI50 [1]: 9.2
- CC50 [2]: 68 µM
- GI50 [2]: 0.5 µM
- IC (TGI) [2]: 8 µM
- GI50 [3]: 22 µM
- IC (TGI) [3]: 52 µM
- LC50 [3]: 82 µM
- GI50 [4]: 5 µM
- IC (TGI) [4]: 20 µM
- LC50 (concentration giving 50% net cell kill relative to T0) [4]: 65 µM

Compound: O=C(NCc1ccc(C(=O)NO)cc1)OCCSc1nc2ccccc2s1 [Example 39, 2-(1,3-Benzothiazol-2-ylthio)ethyl{4-[(hydroxyamino)carbonyl]benzyl}carbamate]
- Mean GI50 [1]: 7.3
- CC50 [2]: 65 µM
- GI50 [2]: 0.4 µM
- IC (TGI) [2]: 5 µM
- GI50 [3]: 16 µM
- IC (TGI) [3]: 54 µM
- LC50 [3]: 82 µM
- GI50 [4]: 5.5 µM
- IC (TGI) [4]: 10 µM
- LC50 (concentration giving 50% net cell kill relative to T0) [4]: 62 µM

Compound: CNC(=O)c1ccc(CNC(=O)OCc2nc3ccccc3[nH]2)cc1 [Example 41, 1H-Benzimidazol-2-ylmethyl{4-[(methylamino)carbonyl]benzyl}carbamate]
- Mean GI50 [1]: 24.3
- CC50 [2]: > 100 µM
- GI50 [2]: 9 µM
- IC (TGI) [2]: > 100 µM
- GI50 [3]: 6 µM
- IC (TGI) [3]: > 100 µM
- LC50 [3]: > 100 µM
- GI50 [4]: 58 µM
- IC (TGI) [4]: > 100 µM
- LC50 (concentration giving 50% net cell kill relative to T0) [4]: > 100 µM

Compound: Nc1ccccc1NC(=O)c1ccc(CNC(=O)OCc2ccsc2)cc1 [Example 49, 3-Thienylmethyl(4-{[(2-aminophenyl)amino]carbonyl}benzyl)carbamate]
- CC50 [2]: 82 µM
- GI50 [2]: 31 µM
- IC (TGI) [2]: 56 µM
- GI50 [3]: 42 µM
- IC (TGI) [3]: 96 µM
- LC50 [3]: > 100 µM
- GI50 [4]: 2 µM
- IC (TGI) [4]: 59 µM
- LC50 (concentration giving 50% net cell kill relative to T0) [4]: > 100 µM
- HDAC Inhibition 1 μM [5]: 10.15
- HDAC Inhibition 10 μM [5]: 18.78

Compound: CN1CCN(C(=O)c2ccc(CNC(=O)OCc3ccsc3)cc2)CC1 [Example 50, 3-Thienylmethyl{4-[(4-methylpiperazin-1-yl)carbonyl]benzyl}carbamate]
- CC50 [2]: > 100 µM
- GI50 [2]: 65 µM
- IC (TGI) [2]: > 100 µM
- GI50 [3]: 64 µM
- IC (TGI) [3]: > 100 µM
- LC50 [3]: > 100 µM
- GI50 [4]: 64 µM
- IC (TGI) [4]: > 100 µM
- LC50 (concentration giving 50% net cell kill relative to T0) [4]: > 100 µM
- HDAC Inhibition 1 μM [5]: −3.95
- HDAC Inhibition 10 μM [5]: 1.45

Compound: O=C(NCc1ccc(C(=O)N2CCOCC2)cc1)OCc1ccsc1 [Example 51, 3-Thienylmethyl[4-(morpholin-4-ylcarbonyl)benzyl]carbamate]
- CC50 [2]: > 100 µM
- GI50 [2]: > 100 µM
- IC (TGI) [2]: > 100 µM
- GI50 [3]: 94.5 µM
- IC (TGI) [3]: > 100 µM
- LC50 [3]: > 100 µM
- GI50 [4]: > 100 µM
- IC (TGI) [4]: > 100 µM
- LC50 (concentration giving 50% net cell kill relative to T0) [4]: > 100 µM
- HDAC Inhibition 1 μM [5]: 3.20
- HDAC Inhibition 10 μM [5]: 3.18

Compound: CS(=O)(=O)Oc1ccc(NC(=O)c2ccc(CNC(=O)OCc3cccs3)cc2)cc1 [Example 70, 4-[(4-{[(2-thienylmethyloxycarbonyl)amino]methyl}benzoyl)amino]phenylmethanesulfonate]
- Mean GI50 [1]: 19.65

Compound: CCOC(=O)CN(OC)C(=O)c1ccc(CNC(=O)OCc2cccs2)cc1 [Example 109, ethyl{methoxy[4-({[(2-thienylmethoxy)carbonyl]amino}-methyl)benzoyl]amino}acetate]
- HDAC Inhibition 1 μM [5]: 8.84
- HDAC Inhibition 10 μM [5]: 15.41
